# Laboratory results: PubChem BioAssay (NCI)
#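 In this assay, cells in 96-well plates receive the compound at five concentrations for 48 hours. Endpoints are linearly interpolated between the surrounding concentrations. GI50 is the concentration that inhibits growth by half. TGI is the concentration that stops growth completely.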
# Assays:
# Experiment in all cases: NCI anticancer screen, dose series, 48 h
# [1] = test system: COLO 205 colon
# [2] = test system: HCC-2998 colon
# [3] = test system: NCI-H460 lung
# [4] = test system: RXF 393 renal
# [5] = test system: SK-MEL-2 melanoma
# [6] = test system: SK-MEL-28 melanoma
# [7] = test system: SN12C renal
# [8] = test system: SW-620 colon
# [9] = test system: T-47D breast
# [10] = test system: UACC-62 melanoma
SMILES,GI50 [1] [µM],TGI [1] [µM],GI50 [2] [µM],TGI [2] [µM],GI50 [3] [µM],TGI [3] [µM],GI50 [4] [µM],TGI [4] [µM],GI50 [5] [µM],TGI [5] [µM],GI50 [6] [µM],TGI [6] [µM],GI50 [7] [µM],TGI [7] [µM],GI50 [8] [µM],TGI [8] [µM],GI50 [9] [µM],TGI [9] [µM],GI50 [10] [µM],TGI [10] [µM]
Nc1nc2c(s1)CCc1c-2c(Br)n(Cc2ccccc2)c1Br,2.53,5.13,18,33.7,21.3,52.9,2.23,6.38,21.6,43.4,12.9,26.2,13.5,31.2,3.31,9.74,3.17,10.6,10.4,24.7
COc1c(C(=O)c2ccc([N+](=O)[O-])cc2)cc(C(C)(C)C)cc1C(C)(C)C,–,–,–,66.9,–,> 100,–,62.2,–,30.1,–,72.8,–,> 100,–,> 100,–,–,–,36.2
Cc1ccc2ncnc(N(CC(C)C)CC(C)C)c2c1,16.9,39.1,16.2,35.7,14.5,49,11.5,27.7,61.1,> 100,19.9,42.6,17.9,38.7,–,–,20.4,89.3,14.5,32.1
CCOC(=O)CSC(=O)NCCCl,–,> 100,–,> 100,–,> 100,–,> 100,–,> 100,–,> 100,–,> 100,–,> 100,–,–,–,> 100
COc1ccc(C2CC(c3cc(C)ccc3O)=NC(N)=N2)cc1 (stereo not given),–,> 100,–,> 100,–,> 100,–,> 100,–,–,–,> 100,–,> 100,–,> 100,–,–,–,> 100
CCOC(=O)C1C2CCC(C2)C1(CCl)C(=O)OCC (stereo not given),–,> 100,–,> 100,–,> 100,–,–,–,–,–,> 100,–,> 100,–,> 100,–,–,–,> 100
N#Cc1c2c(c(N=P(c3ccccc3)(c3ccccc3)c3ccccc3)n3c1nc1ccccc13)CCCC2,–,24.8,–,> 100,–,56.5,–,98.5,–,70.4,–,> 100,–,39.6,–,> 100,–,–,–,74.4
CCCCCCCCCCCCCC(=O)OCC1OC(n2cc(F)c(=O)[nH]c2=O)C(NC(=O)OCc2ccccc2)C(OC(=O)CCCCCCCCCCCCC)C1O (stereo not given),–,> 100,–,> 100,–,> 100,–,> 100,–,> 100,–,> 100,–,> 100,–,> 100,–,–,–,> 100
NS(=O)(=O)c1ccc(NC2=CC(=O)C(=O)c3ccccc32)cc1,–,> 100,–,> 100,–,> 100,–,> 100,–,> 100,–,> 100,–,> 100,–,> 100,–,–,–,> 100
NNC(=O)CNC(=O)c1ccc(Cl)cc1Cl,–,> 100,–,> 100,–,> 100,–,–,–,–,–,> 100,–,> 100,–,33.3,–,–,–,> 100
O=C1c2ccccc2C(=O)N1CCN(CCN1C(=O)c2ccccc2C1=O)Cn1cccn1,–,> 100,–,> 100,–,> 100,–,> 100,–,> 100,–,> 100,–,> 100,–,> 100,–,–,–,63.2
C=C(C)[C@@H]1CC[C@]2(C(=O)O)CC[C@]3(C)[C@H](CC[C@@H]4[C@@]5(C)C[C@@H](CC#Cc6ccc(C(F)(F)F)cc6)[C@H](O)C(C)(C)[C@@H]5CC[C@]43C)[C@@H]12,3.72,> 100,8.48,> 100,3.38,> 100,2.39,5.49,2.08,4.58,–,–,–,–,–,–,4.75,> 100,–,–
COc1ccc2c(c1)[n+](=O)c(C(=O)c1ccco1)c(C(F)(F)F)n2[O-],3.55,18.7,–,–,1.72,15.6,1.67,12,24,> 100,12.3,94.9,3.01,11.8,3.53,34.5,–,–,1.75,4.91
CC(=O)c1ccc(OCC(O)CO)cc1 (stereo not given),–,> 100,–,> 100,–,> 100,–,–,–,–,–,> 100,–,> 100,–,29.4,–,–,–,> 100
Oc1ccc(O)c(-c2cn3ccsc3n2)c1,21.4,48.2,16.5,31.1,13.6,31.4,14.5,29.6,50.4,> 100,–,–,12.2,26.9,7.1,19.1,19.7,40.6,10.8,29.9
O=CNc1ncn[nH]1,–,> 100,–,–,–,> 100,–,> 100,–,> 100,–,> 100,–,> 100,–,> 100,–,> 100,–,> 100
CC1CC(=O)Nc2ccccc2N1C(=O)CN1CCC(CCCCN(C)C)CC1 (stereo not given),–,> 100,–,> 100,–,> 100,–,> 100,–,> 100,–,> 100,–,> 100,–,> 100,–,–,–,> 100
CC1SC2=NC3=C(c4ccccc4C3=O)C(c3ccc(Cl)cc3)N2C1=O (stereo not given),–,> 100,–,> 100,–,> 100,–,–,–,> 100,–,> 100,–,> 100,–,> 100,–,–,–,> 100
CC1=NOC(=O)/C1=C/c1cccc2ccccc12,–,> 100,–,> 100,–,> 100,–,> 100,–,> 100,–,> 100,–,> 100,–,> 100,–,–,–,> 100
O=C1CCC2CC(C(=O)c3ccccc3)CCC2CN1 (stereo not given) (tested in a mixture with another compound),–,> 100,–,> 100,–,> 100,–,> 100,–,> 100,–,> 100,–,> 100,–,> 100,–,–,–,> 100
